tested on: Escherichia coli ATCC 25922; assay: 50% growth inhibitory concentration (IC50) determination, Iso-Sensitest broth dilution; assay type: cell-based; details: Escherichia coli, ATCC25922, 16 h, strain Escherichia coli ATCC 25922; 10-point broth dilution, optical density at 600 nm over 16 h; read-out: Escherichia coli growth inhibition IC50
Method: 50% Growth Inhibitory Concentration (IC50) Determination
The in vitro antimicrobial activity of the compounds was determined according to the following procedure:
The assay used a 10-point Iso-Sensitest broth dilution method to measure quantitatively the in vitro
ATCC 25922, Acinetobacter baumannii ATCC 17961, Klebsiella pneumoniae ATCC 43816 and Staphylococcus aureus ATCC 29213.
Stock compounds in DMSO were serially twofold diluted (e.g. range from 50 to 0.097 μM final concentration) in 384 wells microtiter plates and inoculated with 50 μL of the bacterial suspension in Iso-
ell of 50 μL/well. Microtiter plates were incubated at 35±2° C.
Bacterial cell growth was determined with the measurement of optical density at λ=600 nm each 20 minutes over a time course of 16 h.
Growth inhibition was calculated during the logarithmic growth of the bacterial cells with
Table 1 provides the 50% growth inhibitory concentrations (IC50) in micromoles per liter of the compounds of present invention obtained against the strain Escherichia coli ATCC 25922.

IC50 [nM] | SMILES
221 | Cc1nc(OCc2cc[nH]n2)c(F)c2c1CC(CNCCC1CN(c3cnc4c(n3)NC(=O)CO4)C(=O)O1)C2 (centres unmarked) [Example 415]
< 97.7 | NC(=O)COc1ccc2c(c1F)CC(CNCCC1CN(c3cnc4c(n3)NC(=O)CO4)C(=O)O1)C2 (centres unmarked) [Example 413, 2-[[4-fluoro-2-[[2-[2-oxo-3-(3-oxo-4H-pyrazino[2,3-b][1,4]oxazin-6-yl)-1,3-oxazolidin-5-yl]ethylamino]methyl]-2,3-dihydro-1H-inden-5-yl]oxy]acetamide]
120 | O=C1COc2ncc(N3CC(CCNCC4Cc5c(F)cnc(-c6cn[nH]c6)c5C4)OC3=O)nc2N1 (centres unmarked) [Example 432, 6-[5-[2-[[4-fluoro-1-(1H-pyrazol-4-yl)-6,7-dihydro-5H-cyclopenta[c]pyridin-6-yl]methylamino]ethyl]-2-oxo-1,3-oxazolidin-3-yl]-4H-pyrazino[2,3-b][1,4]oxazin-3-one]
212 | Cc1nc(OC[C@H](N)CO)c(C)c2c1CC(CNCCC1CN(c3ccc4c(n3)NC(=O)CO4)C(=O)O1)C2 (stereo partly drawn) [Example 234, 6-[5-[2-[[3-[(2R)-2-Amino-3-hydroxypropoxy]-1,4-dimethyl-6,7-dihydro-5H-cyclopenta[c]pyridin-6-yl]methylamino]ethyl]-2-oxo-1,3-oxazolidin-3-yl]-4H-pyrido[3,2-b][1,4]oxazin-3-one]
< 97.7 | Cc1ncc(F)c2c1C[C@@H](CNCC[C@@H]1CN(c3cnc4c(n3)NC(=O)CO4)C(=O)O1)C2 [Example 427, 6-[(5R)-5-[2-[[(6R)-4-Fluoro-1-methyl-6,7-dihydro-5H-cyclopenta[c]pyridin-6-yl]methylamino]ethyl]-2-oxo-1,3-oxazolidin-3-yl]-4H-pyrazino[2,3-b][1,4]oxazin-3-one]
< 97.7 | O=C1COc2ncc(N3CC(CCNCC4Cc5cc(O)cc(F)c5C4)OC3=O)nc2N1 (centres unmarked) [Example 317, 6-[5-[2-[(4-Fluoro-6-hydroxy-2,3-dihydro-1H-inden-2-yl)methylamino]ethyl]-2-oxo-1,3-oxazolidin-3-yl]-4H-pyrazino[2,3-b][1,4]oxazin-3-one]

The next lines start with the molecule.

SMILES | IC50 [nM]
CC(N)COc1cc(C#N)c2c(c1)CC(CNCCC1CN(c3ccc4c(n3)NC(=O)CO4)C(=O)O1)C2 (centres unmarked) [Example 192, 6-(2-aminopropoxy)-2-[[2-[2-oxo-3-(3-oxo-4H-pyrido[3,2-b][1,4]oxazin-6-yl)-1,3-oxazolidin-5-yl]ethylamino]methyl]-2,3-dihydro-1H-inclene-4-carbonitrile; 2,2,2-trifluoroacetic acid] | < 97.7
CC(N)COc1cc(F)c2c(c1)CC(CNCCC1CN(c3ccc4c(n3)NC(=O)CO4)C(=O)O1)C2 (centres unmarked) [Example 154, 6-[5-[2-[[6-(2-aminopropoxy)-4-fluoro-2,3-dihydro-1H-inden-2-yl]methylamino]ethyl]-2-oxo-1,3-oxazolidin-3-yl]-4H-pyrido[3,2-b][1,4]oxazin-3-one] | < 97.7
N#Cc1cccc2c1CC(CNCCC1(N)CC(=O)N(c3ccc4c(n3)NC(=O)CO4)C1)C2 (centres unmarked) [Example 138, 2-[[2-[3-amino-5-oxo-1-(3-oxo-4H-pyrido[3,2-b][1,4]oxazin-6-yl)pyrrolidin-3-yl]ethylamino]methyl]-2,3-dihydro-1H-indene-4-carbonitrile] | 359
N#Cc1nc(OCCN)cc2c1CC(CNCCC1CN(c3ccc4c(n3)NC(=O)CO4)C(=O)O1)C2 (centres unmarked) [Example 127, 3-(2-aminoethoxy)-6-[[2-[2-oxo-3-(3-oxo-4H-pyrido[3,2-b][1,4]oxazin-6-yl)-1,3-oxazolidin-5-yl]ethylamino]methyl]-6,7-dihydro-5H-cyclopenta[c]pyridine-1-carbonitrile; formic acid] | 189
O=C1COc2ccc(N3CC(CNC4Cc5ccc(Cl)cc5C4)OC3=O)nc2N1 (centres unmarked) [Example 25, 6-[5-[[(5-chloro-2,3-dihydro-1H-inden-2-yl)amino]methyl]-2-oxo-1,3-oxazolidin-3-yl]-4H-pyrido[3,2-b] [1,4]oxazin-3-one] | 4070

Reference: US20230167127A1, “COMPOUNDS AND THEIR USE IN THE TREATMENT OF BACTERIAL INFECTION” (Hoffmann-La Roche Inc., priority 2020, published 2023)
